This assay deals with MX-1 breast xenograft, nude mice, tumor weight T/C. Description: NCI In Vivo Anticancer Drug Screen. Data for tumor model Human Mammary Carcinoma MX-1 Xenograft (intrarenal inoculation) in NU/NU Swiss (nude) mice. Conditions: endpoint: mean tumor weight change, higher = larger tumour. The essentials: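 Antitumour effect measured in vivo against vehicle controls, expressed as T/C.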

The mark [1] stands for this setting: dose: 300.0 mg/kg/injection, schedule: Q04DX003 (sc), vehicle: saline with Tween-80.
Setting [2] is: dose: 25.0 mg/kg/injection, schedule: Q04DX003 (sc), vehicle: suspension in saline.
[3] abbreviates: dose: 50.0 mg/kg/injection, schedule: Q04DX003 (sc), vehicle: suspension in saline.
Where [4] appears, read: dose: 50.0 mg/kg/injection, schedule: Q01DX010 (sc), vehicle: saline + Tween-80 + alcohol.
Where [5] appears, read: dose: 100.0 mg/kg/injection, schedule: Q01DX010 (sc), vehicle: saline + Tween-80 + alcohol.
Where [6] appears, read: dose: 200.0 mg/kg/injection, schedule: Q01DX010 (sc), vehicle: saline + Tween-80 + alcohol.

Several values for one entry are separate records, joined by “and”; a condition that tells them apart may be missing. Identical values can stand only once. Records with an inconclusive call do not appear.

As for `COC1CC(CC2CCC(C)C(C(C)C(=O)O)O2)OC2(OC(C)(C3CCC(C)(C4OC(C5OC(O)(CO)C(C)CC5C)CC4C)O3)CC2C)C1C` (stereo unspecified), the T/C reads like this: (dose: 3.75 mg/kg/injection, schedule: Q04DX003 (sc), vehicle: Klucel (hydroxypropylcellulose) (HPC)) 120 % of control; (dose: 7.5 mg/kg/injection, schedule: Q04DX003 (sc), vehicle: Klucel (hydroxypropylcellulose) (HPC)) 65 % of control; (dose: 15.0 mg/kg/injection, schedule: Q04DX003 (sc), vehicle: Klucel (hydroxypropylcellulose) (HPC)) 86 % of control.
In the case of `COC1=NCN=C2SC=C(N)N=C12`, the T/C (dose: 37.5 mg/kg/injection, schedule: Q04DX003 (sc), vehicle: suspension in saline) is 50 % of control; the T/C (dose: 75.0 mg/kg/injection, schedule: Q04DX003 (sc), vehicle: suspension in saline) is 30 % of control; the T/C (dose: 150.0 mg/kg/injection, schedule: Q04DX003 (sc), vehicle: suspension in saline) is 43 % of control.
For the molecule `CN=C(N)N/N=C(\c1ccccc1)c1ccc(Br)cc1`, the T/C is, setting by setting: (dose: 25.0 mg/kg/injection, schedule: Q04DX003 (sc), vehicle: saline with Tween-80) 101 % of control; (dose: 50.0 mg/kg/injection, schedule: Q04DX003 (sc), vehicle: saline with Tween-80) 163 % of control; (dose: 100.0 mg/kg/injection, schedule: Q04DX003 (sc), vehicle: saline with Tween-80) 78 % of control.
For `CS(=O)(=O)c1ncc(Br)cn1`, the T/C is 79 % of control (dose: 25.0 mg/kg/injection, schedule: Q01DX010 (sc), vehicle: suspension in saline); 98 % of control (dose: 75.0 mg/kg/injection, schedule: Q04DX003 (sc), vehicle: saline with Tween-80); 121 % of control (dose: 150.0 mg/kg/injection, schedule: Q04DX003 (sc), vehicle: saline with Tween-80); 119 % of control under setting [1].
For `NC(=O)c1ncn2c(=O)n(CCCl)nnc12`, the T/C by setting is: under setting [2], 69 % of control; under setting [3], 30 % of control.
With `CCCCC1CCCCCCc2[nH]c(/C=C3\N=C(c4ccc[nH]4)C=C3OC)cc21` (stereo unspecified), the T/C was 82 % of control (dose: 4.0 mg/kg/injection, schedule: Q04DX003 (sc), vehicle: saline with Tween-80); 107 % of control (dose: 8.0 mg/kg/injection, schedule: Q04DX003 (sc), vehicle: saline with Tween-80); 105 % of control (dose: 16.0 mg/kg/injection, schedule: Q04DX003 (sc), vehicle: saline with Tween-80); 80 % of control (dose: 32.0 mg/kg/injection, schedule: Q04DX003 (sc), vehicle: saline with Tween-80).
For the molecule `CCc1c(CC(=O)O)c2cc(C)ccc2n1Cc1ccc(Cl)cc1`, the T/C by setting is: (dose: 300.0 mg/kg/injection, schedule: Q04DX003 (sc), vehicle: Klucel (hydroxypropylcellulose) (HPC)) 71 % of control; (dose: 600.0 mg/kg/injection, schedule: Q04DX003 (sc), vehicle: Klucel (hydroxypropylcellulose) (HPC)) 86 % of control; (dose: 1200.0 mg/kg/injection, schedule: Q04DX003 (sc), vehicle: Klucel (hydroxypropylcellulose) (HPC)) 51 % of control; (dose: 2400.0 mg/kg/injection, schedule: Q04DX003 (sc), vehicle: Klucel (hydroxypropylcellulose) (HPC)) 49 % of control.
Consider `CN(C)N=Nc1ccc(C(=O)O)cc1`, for which the T/C is, setting by setting: (dose: 100.0 mg/kg/injection, schedule: Q04DX003 (ip), vehicle: saline) 55 % of control; (dose: 200.0 mg/kg/injection, schedule: Q04DX003 (ip), vehicle: saline) 16 % of control; (dose: 400.0 mg/kg/injection, schedule: Q04DX003 (ip), vehicle: saline) -31 % of control.
For `c1cc(NC2CCCCC2)ccc1CN1CCOCC1`, the T/C reads like this: under setting [4], 66 % of control; under setting [5], 38 % of control; under setting [6], 81 % of control; (dose: 400.0 mg/kg/injection, schedule: Q01DX010 (sc), vehicle: saline + Tween-80 + alcohol) 61 % of control.
As to `C=C(C)[C@H]1Cc2c(ccc3c2O[C@@H]2COc4cc(OC)c(OC)cc4[C@@H]2C3=O)O1`, the T/C (dose: 4.0 mg/kg/injection, schedule: Q01DX010 (sc), vehicle: saline with Tween-80) is 94 % of control and the T/C (dose: 8.0 mg/kg/injection, schedule: Q01DX010 (sc), vehicle: saline with Tween-80) is 80 % of control.
Regarding `CC1=C(C)C(=O)O[C@@H]([C@](C)(O)[C@]2(O)CC[C@@]3(O)[C@@H]4C[C@H]5O[C@]56[C@@H](O)C=CC(=O)[C@]6(C)[C@H]4CC[C@]23C)C1`, the T/C (dose: 16.0 mg/kg/injection, schedule: Q01DX010 (sc), vehicle: saline) was 155 % of control; the T/C (dose: 32.0 mg/kg/injection, schedule: Q01DX010 (sc), vehicle: saline) is 95 % of control; the T/C (dose: 64.0 mg/kg/injection, schedule: Q01DX010 (sc), vehicle: saline) is 75 % of control.
Turning to `CC1=CC(C)(C)Nc2ccc(CSc3ccccc3)cc21`, the T/C (dose: 25.0 mg/kg/injection, schedule: Q01DX010 (sc), vehicle: saline + Tween-80 + alcohol) is 85 % of control; the T/C under setting [4] is 153 % of control; the T/C under setting [5] is 79 % of control and 102 % of control; the T/C under setting [6] was 89 % of control.
As to `O=C(NO)c1cc(O)c(O)c(O)c1`, the T/C was 64 % of control (dose: 200.0 mg/kg/injection, schedule: Q04DX003 (sc), vehicle: distilled water + Tween-80); 109 % of control (dose: 400.0 mg/kg/injection, schedule: Q04DX003 (sc), vehicle: distilled water + Tween-80); 122 % of control (dose: 800.0 mg/kg/injection, schedule: Q04DX003 (sc), vehicle: distilled water + Tween-80).
Regarding `NC(Cn1ccc(=O)c(O)c1)C(=O)O` (stereo unspecified), the T/C runs as follows: (dose: 300.0 mg/kg/injection, schedule: Q04DX003 (sc), vehicle: saline) 72 % of control; (dose: 1200.0 mg/kg/injection, schedule: Q04DX003 (sc), vehicle: saline) 88 % of control; (dose: 2400.0 mg/kg/injection, schedule: Q04DX003 (sc), vehicle: saline) 88 % of control.
`O=C1c2c(O)ccc(O)c2C(=O)c2c(NCCNCCO)ccc(NCCNCCO)c21`: the T/C reads like this: (dose: 0.5 mg/kg/injection, schedule: Q01DX010 (sc), vehicle: acid diluted with saline) 40 % of control; (dose: 2.0 mg/kg/injection, schedule: Q01DX010 (sc), vehicle: acid diluted with saline) 62 % of control; (dose: 2.5 mg/kg/injection, schedule: Q04DX003 (sc), vehicle: other) 59 % of control; (dose: 2.5 mg/kg/injection, schedule: Q04DX003 (sc), vehicle: water) 28 % of control; (dose: 5.0 mg/kg/injection, schedule: Q04DX003 (sc), vehicle: other) 34 % of control; (dose: 5.0 mg/kg/injection, schedule: Q04DX003 (sc), vehicle: water) 9 % of control and 29 % of control. The T/C (dose: 10.0 mg/kg/injection, schedule: Q04DX003 (sc), vehicle: other) is 8 % of control and the T/C (dose: 10.0 mg/kg/injection, schedule: Q04DX003 (sc), vehicle: water) was 6 % of control.
For `COC(=O)C(Cl)(Cl)N=Nc1c(Cl)cc(Cl)c(C)c1Cl`, the T/C is, setting by setting: under setting [1], 78 % of control; (dose: 600.0 mg/kg/injection, schedule: Q04DX003 (sc), vehicle: saline with Tween-80) 74 % of control.
For `C1CN2CN3CCN(CN1C3)C2`, the T/C reads like this: (dose: 100.0 mg/kg/injection, schedule: Q01DX010 (sc), vehicle: saline) 114 % of control; (dose: 200.0 mg/kg/injection, schedule: Q01DX010 (sc), vehicle: saline) 97 % of control.
For `CCCCc1ccc(-n2c(C)c(COC(=O)NC)c(COC(=O)NC)c2C)cc1`, the T/C is 114 % of control (dose: 12.5 mg/kg/injection, schedule: Q01DX010 (sc), vehicle: Klucel (hydroxypropylcellulose) (HPC)); 84 % of control (dose: 25.0 mg/kg/injection, schedule: Q01DX010 (sc), vehicle: Klucel (hydroxypropylcellulose) (HPC)); 34 % of control (dose: 50.0 mg/kg/injection, schedule: Q01DX010 (sc), vehicle: Klucel (hydroxypropylcellulose) (HPC)); 77 % of control (dose: 100.0 mg/kg/injection, schedule: Q01DX010 (sc), vehicle: Klucel (hydroxypropylcellulose) (HPC)).
`COc1cccc2c1C(=O)c1c(O)c3c(c(O)c1C2=O)CC(O)(/C(C)=N/NC(=O)CCCCC(=O)N/N=C(\C)C1(O)Cc2c(O)c4c(c(O)c2C(OC2CC(N)C(O)C(C)O2)C1)C(=O)c1c(OC)cccc1C4=O)CC3OC1CC(N)C(O)C(C)O1` (stereo unspecified): the T/C is 62 % of control (dose: 50.0 mg/kg/injection, schedule: Q04DX003 (sc), vehicle: water) and 2 % of control (dose: 100.0 mg/kg/injection, schedule: Q04DX003 (sc), vehicle: water).
Regarding `O=[Te]=O`, the T/C is, setting by setting: (dose: 12.5 mg/kg/injection, schedule: Q04DX003 (sc), vehicle: suspension in saline) 91 % of control; under setting [2], 79 % of control; under setting [3], 122 % of control.

The values are drawn from PubChem BioAssay AID296 (DTP/NCI, 2004).
